# Source: patent US7557085B2, “Metabolic-based methods for modulating gene expression” (Wisconsin Alumni Research Foundation, priority 2005, dated 2009)
# Key:
# [1] = format: in vivo; settings: rats
# Description: Dosage amount and interval of administration of compounds of the present invention can be adjusted individually to reduce seizure frequency, duration or intensity. For example, doses of 250 mg/kg 2-DG or less to higher as tolerated can be used to reduce seizure frequency and minimize toxicity. Doses of as much as 2000 mg/kg 2-DG are well tolerated in rats. […] A practitioner skilled in the art can adjust dosage in the range up to 500-600 mg/kg 2-DG and the timing of administration to produce prolonged anticonvulsant and antiepileptic effects. Efficacious dosage amounts can be adjusted to about 14 mg/kg 2-DG in children and 40 mg/kg 2-DG in adults, using therapeutic efficacy measurements (e.g., reduction in frequency or severity of seizures) as a criterion for establishing effective dosage levels.
# actin = assay: QRT-PCR of hippocampal tissue from kindled rats, actin; format: in vivo, rat; settings: hippocampus, 2-DG treatment versus control
# Excerpt: Values plotted are BDNF or TrkB expression over Actin using rat hippocampal cDNA from an untreated rat for a standard curve. Specifically, mRNA was extracted from hippocampus tissue from rats treated with 2-DG or untreated control rats subjected to kindling stimulation to mimic epilepsy. […] The levels of actin mRNA were not affected by 2-DG treatment. Importantly, the differences in expression of BDNF or TrkB in the absence or presence of 2DG were present after 5 ADs in association with a large difference in AD threshold between 2DG-treated and control rats (FIG. 3 lanes 5 versus 6 and 7 versus 8).
# [2] = tested on: hippocampal gene expression; assay: microarray hybridization of rat hippocampus mRNA (Affymetrix Rat Array); format: in vivo; settings: of 35,000 genes comprising the microarray
# Description: In view of the results with BDNF and TrkB, hippocampal gene expression changes in rats treated with and without 2-DG were assessed by hybridization using microarrays (Affymetrix Rat Array (35,000 genes represented), Affymetrix, Santa Clara, Calif.). Hybridizations were performed according to the manufacturer's instructions using mRNA isolated from rat hippocampus from rats following dietary restriction or treatment with drug (2-DG). […] Genes of interest in disease states detected in these experiments include but are not limited to snail (NM_005985), MDR3/MRP3 (GenBank Accession No. M23234), MTA1 (NM_004689), DCC (NM_005215), Netrin (U75586), and β-catenin (X87838)(metastasis); BDNF (NM_170731) and TrkB (NM_006180) (neurological disorders) and atrial natriuretic peptide (ANP; NM_000907)(cardiac hypertrophy/myocardial infarction).
# [3] = tested on: NRSF binding site (NSRE) from the mouse homolog of the human snail promoter; assay: SV40 luciferase reporter with snail promoter NRSE in HEK 293 cells; format: cell-based; settings: HEK 293 cells grown overnight in the presence of glucose
# Excerpt: FIG. 12 is a graph showing repression of expression of a reporter gene using an SV40 promoter with or without the NRSF binding site from the human snail promoter. HG=glucose; Pyr=pyruvate; 2-DG=2-deoxyglucose.
# To investigate whether the effects of 2-DG on gene expression is evidenced in genes known to be involved in metastatic growth, the NRSF binding site (NSRE) from the mouse homolog of the human snail promoter (GenBank Accession No. NM_005985), comprising a 440 bp nucleotide sequence
# identified as SEQ ID NO. 6 was introduced into the SV40 promoter in the plasmid vector pGL3 (available from Promega, Madison, Wis.) at the BglII and Acc65I restriction enzyme recognition sites). In pGL3. a luciferase reporter gene is under the transcriptional control of the SV40 promoter, and in the construct described herein transcription from the SV40 promoter is regulated by NRSE/NRSF. Reporter plasmids with and without the NSRE insert were transfected into HEK 293 cells (ATCC Accession No. CRL 1573 ATCC, Manassas, Va.) and the cells grown overnight in the presence of glucose with and without pyruvate, 2-DG or both pyruvate and 2DG. […]
compound,measurement,setting,value
"O=CC[C@@H](O)[C@H](O)[C@H](O)CO [2-DG, 2-deoxy-D-glucose]",well tolerated dose,[1],≤ 2000 mg/kg
same,levels of actin mRNA,actin,not affected
same,number of genes down-regulated by drug treatment,[2],349
same,number of genes transcriptionally upregulated by drug treatment,[2],241
same,reporter gene expression (ratio of SV40-driven to NRSE/SV40 luciferase expression),[3],decreased
